ChEMBL document CHEMBL3351947, “Isolation of pyrrolocins A-C: cis- and trans-decalin tetramic acid antibiotics from an endophytic fungal-derived pathway” (J Nat Prod, 2014)

Key:
[1] = Cytotoxicity against human CEM-TART cells after 4 days by MTT assay; assay type: cell-based; conditions: 96 h
[2] = tested on: Mycobacterium tuberculosis; assay: Antimicrobial activity against Mycobacterium tuberculosis H37Ra after 4 days by MTT assay; assay type: functional, organism-based; conditions: 96 h

With `CC1=C[C@H]2C[C@@H](C)CC[C@@H]2[C@@](C)(C(=O)C2=C(O)[C@@H](CO)NC2=O)[C@H]1/C=C/C=C/C[C@@H](C)O` the IC50 [1] was 113 µM and the IC50 [2] was 56.4 µM.

With `CC1=C[C@H]2C[C@@H](C)CC[C@@H]2[C@@](C)(C(=O)C2=C(O)[C@@H](CO)N(C)C2=O)[C@H]1/C=C/C=C/C[C@@H](C)O` the IC50 [1] was 76.6 µM and the IC50 [2] was 26.3 µM.

Compound `CC1=C[C@@H]2C[C@@H](C)CC[C@@H]2[C@@](C)(C(=O)C2=C(O)[C@@H](CO)NC2=O)[C@@H]1/C=C/C=C/C[C@@H](C)O` has an IC50 [1] of 167 µM and an IC50 [2] of 113 µM.

With `CO[C@H]1/C=C/O[C@@]2(C)Oc3c(C)c(O)c4c(O)c(c(/C=N/N5CCN(C)CC5)c(O)c4c3C2=O)NC(=O)/C(C)=C\C=C\[C@H](C)[C@H](O)[C@@H](C)[C@@H](O)[C@@H](C)[C@H](OC(C)=O)[C@@H]1C` [RIFAMPIN] the IC50 [2] was 0.152 µM.
